Laboratory results taken from PMC7979765, “trans-Translation inhibitors bind to a novel site on the ribosome and clear Neisseria gonorrhoeae in vivo” (Nature Communications, 2021).
Values after ≈ are worked out from the molar mass of the structure shown. Values joined by “and” are separate entries in the source; they are usually repeats but may differ in a detail not shown here. Equal values may be shown once.

How the values were obtained:
Neisseria gonorrhoeae = assay: MIC, microbroth dilution, G77L medium; assay type: cell-based; conditions: Neisseria gonorrhoeae ATCC 49226; source data, individual replicates
HeLa cells [1] = assay: Mammalian cell cytotoxicity (CC50); assay type: cell-based, human; conditions: HeLa, replicates
Procedure: The half maximal cytotoxic concentration (CC50) of each compound against HeLa cells (ATCC CCL-2) was measured as previously described. […] The mean values for each biological replicate were averaged, and the CC50 was determined using a 4-parameter nonlinear curve fitting algorithm (GraphPad Prism). The average of the CC50s from two biological replicates was calculated and reported.

[2] = Liver microsome stability, murine; assay type: in vitro ADME, mouse; conditions: murine liver microsomes; for Average MLMS t½: average of replicates; for MLMS t½: individual replicates
Procedure: To examine potential for first-pass metabolism of analogs in the liver, the stability of analogs in the presence of liver microsome preparations (Eurofins Discovery for human, dog and rat; Xenotech for mouse) was measured using the method of Kuhnz, et al.[50]. for murine studies and Oback for the dog, human and rat studies. The amount of parent compound remaining after incubation with microsomes in the presence of NADPH over a 30 min time range was measured using a reverse-phase liquid chromatography/mass spectroscopy method that was customized for each compound. Half-lives were calculated using linear regression analysis of several time points.

[3] = Aqueous solubility (nephelometric); assay type: physicochemical; conditions: for Solubility: single replicates
Escherichia coli = assay: microbe, parasite or virus in culture; assay type: cell-based; conditions: E. coli KLE701 (ΔtolC::tet); source data, individual replicates
HeLa cells [4] = assay: Mammalian cell cytotoxicity (CC50); assay type: cell-based, human; conditions: one value per replicate
trans-translation = assay: microbe, parasite or virus in culture; assay type: cell-based, Escherichia coli; conditions: Eco Luc reporter, one value per replicate; read-out: IC50
Procedure: To verify that MBX-4132 retains activity as an inhibitor of trans-translation, we measured its dose-dependent activity against the non-stop luciferase reporter assay strain E. coli SB75 ΔtolC::kan (pluc-trpAt) essentially as described, with modifications. Briefly, serial 1.5-fold dilutions of MBX-4132 in DMSO were transferred to 96-well assay plates (Costar 3195), followed by the addition of 50 µl of an overnight culture of SB75 ΔtolC::kan (pluc-trpAt) that had been diluted to a final OD600 of 0.4 with LB media supplemented with 100 µg ampicillin/ml and 1 mM IPTG. […] The assay plates were incubated at room temperature for 2 h, and 50 µl of BrightGlo (Promega) bioluminescence reagent was added to each well. After 10 min incubation, bioluminescence intensity was measured using an Envision multi-label plate reader (Perkin Elmer). Each assay comprised three technical replicates, and the experiment was repeated three times. The fold induction for each MBX-4132 treated sample as compared to the DMSO-only sample was calculated for each technical replicate, and the average and standard deviation of the three technical was calculated. The IC50 was determined using a 4-parameter nonlinear curve fitting algorithm (GraphPad Prism).

Row | SMILES | MIC (Neisseria gonorrhoeae) | NORMALIZED DATA (Fraction DMSO Control) (HeLa cells [1]; [CMPD] 0.78125 µM) | NORMALIZED DATA (Fraction DMSO Control) (HeLa cells [1]; [CMPD] 1.5625 µM) | NORMALIZED DATA (Fraction DMSO Control) (HeLa cells [1]; [CMPD] 3.125 µM) | NORMALIZED DATA (Fraction DMSO Control) (HeLa cells [1]; [CMPD] 6.25 µM) | NORMALIZED DATA (Fraction DMSO Control) (HeLa cells [1]; [CMPD] 12.5 µM) | NORMALIZED DATA (Fraction DMSO Control) (HeLa cells [1]; [CMPD] 25 µM) | NORMALIZED DATA (Fraction DMSO Control) (HeLa cells [1]; [CMPD] 50 µM) | NORMALIZED DATA (Fraction DMSO Control) (HeLa cells [1]; [CMPD] 100 µM) | Average MLMS t½ [2] [min] | MLMS t½ [2] | Average solubility [3] [µM] | Solubility [3] [µM] | MIC (Escherichia coli) | CC50 (HeLa cells [4]) [µM] | IC50 (trans-translation) [µM]
1 | O=C(Nc1nnc(-c2ccc(F)cc2)o1)C1CCCCC1 [MBX-3709] | 7.233 µg/mL and 3.616 µg/mL | 0.9843 Fraction DMSO Control and 0.9839 Fraction DMSO Control and 1.011 Fraction DMSO Control and 0.9844 Fraction DMSO Control and 1.002 Fraction DMSO Control and 0.9797 Fraction DMSO Control | 1.013 Fraction DMSO Control and 1.069 Fraction DMSO Control and 1.052 Fraction DMSO Control and 1.032 Fraction DMSO Control and 1.012 Fraction DMSO Control and 1.033 Fraction DMSO Control | 1.017 Fraction DMSO Control and 1.012 Fraction DMSO Control and 1.028 Fraction DMSO Control and 1.006 Fraction DMSO Control and 0.9958 Fraction DMSO Control and 1.035 Fraction DMSO Control | 0.9952 Fraction DMSO Control and 1.018 Fraction DMSO Control and 1.016 Fraction DMSO Control and 1.009 Fraction DMSO Control and 1.013 Fraction DMSO Control and 1.001 Fraction DMSO Control | 1.025 Fraction DMSO Control and 1.013 Fraction DMSO Control and 1.022 Fraction DMSO Control and 1.004 Fraction DMSO Control and 1.002 Fraction DMSO Control and 1.0412 Fraction DMSO Control | 1.006 Fraction DMSO Control and 1.033 Fraction DMSO Control and 1.009 Fraction DMSO Control and 1.014 Fraction DMSO Control and 0.9855 Fraction DMSO Control and 1.046 Fraction DMSO Control | 0.7814 Fraction DMSO Control and 0.7858 Fraction DMSO Control and 0.7422 Fraction DMSO Control and 0.8088 Fraction DMSO Control and 0.7466 Fraction DMSO Control and 0.7859 Fraction DMSO Control | 0.7348 Fraction DMSO Control and 0.7441 Fraction DMSO Control and 0.7211 Fraction DMSO Control and 0.7931 Fraction DMSO Control and 0.7717 Fraction DMSO Control and 0.7681 Fraction DMSO Control | <5 | <5 min | 25 | 25 (≈ 7.23 µg/mL) | 28.931 µg/mL (≈ 100 µM) | ≥ 100 | –
2 | Cc1ccc(S(=O)(=O)Nc2nnc(-c3ccc(F)cc3)o2)cc1 [MBX-4063] | >=33.3 µg/ml | 1.183 Fraction DMSO Control and 0.9487 Fraction DMSO Control and 1.005 Fraction DMSO Control | 1.094 Fraction DMSO Control and 0.958 Fraction DMSO Control and 0.97 Fraction DMSO Control | 1.091 Fraction DMSO Control and 0.9572 Fraction DMSO Control and 1.016 Fraction DMSO Control | 1.076 Fraction DMSO Control and 0.9091 Fraction DMSO Control and 0.9832 Fraction DMSO Control | 1.0577 Fraction DMSO Control and 0.9473 Fraction DMSO Control and 0.9636 Fraction DMSO Control | 1.026 Fraction DMSO Control and 0.9338 Fraction DMSO Control and 0.9374 Fraction DMSO Control | 1.123 Fraction DMSO Control and 0.9526 Fraction DMSO Control and 0.9567 Fraction DMSO Control | 1.06 Fraction DMSO Control and 0.9108 Fraction DMSO Control and 0.964 Fraction DMSO Control | <5 | <5 min | 100 | 100 (≈ 33.3 µg/mL) | >=33.334 µg/ml | ≥ 100 | ≥ 25
3 | O=C(Nc1nnc(-c2ccc(F)cc2)o1)N1CCCCCC1 [MBX-4700] | 0.951 µg/mL and 0.4755 µg/mL | 1.19 Fraction DMSO Control and 0.9349 Fraction DMSO Control and 0.9879 Fraction DMSO Control | 1.113 Fraction DMSO Control and 0.9447 Fraction DMSO Control and 0.9899 Fraction DMSO Control | 1.151 Fraction DMSO Control and 1.008 Fraction DMSO Control and 1.078 Fraction DMSO Control | 0.9458 Fraction DMSO Control and 0.9081 Fraction DMSO Control and 0.9843 Fraction DMSO Control | 0.7537 Fraction DMSO Control and 0.7467 Fraction DMSO Control and 0.8509 Fraction DMSO Control | 0.8669 Fraction DMSO Control and 0.6852 Fraction DMSO Control and 0.8634 Fraction DMSO Control | 0.8891 Fraction DMSO Control and 0.7812 Fraction DMSO Control and 0.7745 Fraction DMSO Control | 0.8207 Fraction DMSO Control and 0.7165 Fraction DMSO Control and 0.6953 Fraction DMSO Control | 19 | 16.8 min and 21.8 min | 25 | 25 (≈ 7.61 µg/mL) | 3.804 µg/mL and 7.608 µg/mL | ≥ 100 | –
4 | O=C(Nc1nnc(-c2ccc(F)cc2)o1)N1CCCCC1 [MBX-4699] | 0.9072 µg/mL (≈ 3.13 µM) | 1.206 Fraction DMSO Control and 0.9471 Fraction DMSO Control and 1 Fraction DMSO Control | 1.141 Fraction DMSO Control and 0.9447 Fraction DMSO Control and 0.9657 Fraction DMSO Control | 1.163 Fraction DMSO Control and 1.061 Fraction DMSO Control and 1.0891 Fraction DMSO Control | 1.089 Fraction DMSO Control and 1.109 Fraction DMSO Control and 1.081 Fraction DMSO Control | 0.7963 Fraction DMSO Control and 0.7071 Fraction DMSO Control and 0.8639 Fraction DMSO Control | 0.8798 Fraction DMSO Control and 0.8258 Fraction DMSO Control and 0.8774 Fraction DMSO Control | 0.9431 Fraction DMSO Control and 0.7958 Fraction DMSO Control and 0.7843 Fraction DMSO Control | 0.7918 Fraction DMSO Control and 0.6844 Fraction DMSO Control and 0.6971 Fraction DMSO Control | 12 | 10.1 min and 13.2 min | 50 | 50 (≈ 14.5 µg/mL) | 7.257 µg/mL (≈ 25 µM) | ≥ 100 | –
